Measurements from article PMC6155831, “Promising Inhibitory Effects of Anthraquinones, Naphthopyrone, and Naphthalene Glycosides, from Cassia obtusifolia on α-Glucosidase and Human Protein Tyrosine Phosphatases 1B” (Molecules : A Journal of Synthetic Chemistry and Natural …, 2016).
pKi: −log10 of the molar value.

Key:
α-glucosidase = tested on: α-glucosidase; set-up: method as in doi:10.1007/s10600-012-0275-4, PMID 25142941; conditions: from the EtOAc fraction of the methanolic extract of C. obtusifolia; cited from earlier work
[1] = molecular target: T1, PTP1B (human recombinant) (Homo sapiens, UniProt P18031); test: Protein tyrosine phosphatase 1B (PTP1B) inhibition assay with pNPP as substrate; type: biochemical; conditions: for PTP1B IC50 (Mean ± SEM) / IC50: pNPP substrate, test concentration up to 100 µg/mL in 10% DMSO, triplicate; for IC50: read-out: PTP1B IC50 (Mean ± SEM) (converted)
T1 construct: purchased Biomol International LP (Plymouth Meeting, PA, USA)
T1 sequence (P18031 1-435): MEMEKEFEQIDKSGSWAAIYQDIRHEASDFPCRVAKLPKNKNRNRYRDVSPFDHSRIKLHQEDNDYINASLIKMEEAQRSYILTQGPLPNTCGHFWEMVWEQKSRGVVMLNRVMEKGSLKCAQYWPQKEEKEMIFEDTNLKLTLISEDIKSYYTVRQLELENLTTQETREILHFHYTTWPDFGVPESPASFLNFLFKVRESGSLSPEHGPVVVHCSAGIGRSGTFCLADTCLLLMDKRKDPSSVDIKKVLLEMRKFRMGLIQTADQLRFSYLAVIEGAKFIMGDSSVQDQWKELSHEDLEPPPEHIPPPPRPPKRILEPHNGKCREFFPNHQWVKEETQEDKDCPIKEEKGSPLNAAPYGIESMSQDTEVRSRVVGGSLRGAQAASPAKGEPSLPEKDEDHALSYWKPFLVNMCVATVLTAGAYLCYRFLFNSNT
Protocol: The PTP1B inhibitory activities were evaluated using p-nitrophenyl phosphate as the substrate (pNPP) in a procedure reported by Cui et al.. Each well of a 96-well plate (final volume 100 μL) contained were 40 μL of PTP1B enzyme (0.5 units diluted with a PTP1B reaction buffer containing 50 mM citrate (pH 6.0), 0.1 M NaCl, 1 mM EDTA, and 1 mM dithiotheritol (DTT)), to which sample (test concentration up to 100 μg/mL) dissolved in 10% DMSO was or was not added. The plate was pre-incubated at 37 °C for 10 min, and then 50 μL of 2 mM pNPP in PTP1B reaction buffer was added. Following incubation at 37 °C for 30 min, the reaction was terminated with the addition of 10 M NaOH. The amounts of p-nitrophenyl produced after enzymatic dephosphorylation from pNPP was estimated by measuring the absorbance at 405 nm using microplate spectrophotometer (Molecular Devices). The non-enzymatic hydrolysis of 2 mM pNPP was corrected by measuring the increase in absorbance at 405 nm obtained in the absence of PTP1B enzyme. The percent inhibition (%) was obtained by the following equation: % inhibition = (Ac − As)/Ac × 100, where Ac is the absorbance of the control, and As is the absorbance of the sample.

Yeast α-glucosidase [2] = test: α-Glucosidase inhibitory assay with pNPG as substrate; type: biochemical; conditions: test concentration up to 400 µg/mL in 10% DMSO, triplicate
Protocol: Enzyme inhibition assays were carried out spectrophotometrically using a procedure reported by Li et al.. A 60 μL reaction mixture containing 20 μL of 100 mM phosphate buffer (pH 6.8), 20 μL of 2.5 mM pNPG, and 20 μL of sample (test concentration up to 400 μg/ml for compounds) dissolved in 10% DMSO was added to each well, followed by the addition of 20 μL of α-glucosidase (0.2 U/mL in 10 mM phosphate buffer (pH 6.8)). The plate was incubated at 37 °C for 15 min, and then 80 μL of 0.2 M sodium carbonate solution was added to stop the reaction. Right after that, the absorbance was recorded at 405 nm using a VERSA max microplate reader (Molecular Devices, Sunnyvale, CA, USA). The control contained the same reaction mixture with the same volume of phosphate buffer instead of sample solution. […] The percent inhibition (%) was obtained using the following equation: % Inhibition = (Ac − As)/Ac × 100, where Ac is the absorbance of the control, and As is the absorbance of the sample.

[3] = tested on: insulin-resistant HepG2 cells; test: 2-NBDG glucose uptake assay in insulin-resistant HepG2 cells; type: cell-based, human; conditions: for insulin-stimulated uptake of 2-NBDG: 24 h, compared to the control
Protocol: The HepG2 (human hepatocarcinoma) cell line was purchased from the American Type Culture Collection (HB-8065, Manassas, VA, USA). Cells were maintained in MEM containing 2.0 mM L-glutamine, 0.1 mM non-essential amino acids, 1.0 mM sodium pyruvate, and 10% FBS at 37 °C in a humidified atmosphere with 5% CO2. The medium was changed every 48 h. […] The establishment of an insulin-resistant HepG2 cell model and glucose uptake was performed according to the reported method, with slight modifications. Briefly, HepG2 cells were cultured in 96-well cluster plates. After reaching confluence, the cells were treated with 10^−6 mol/L insulin for 24 h to induce insulin resistance. […] After this incubation, the 2-NBDG uptake in insulin-resistant HepG2 cells was measured. The cells were incubated with 40 μM 2-NBDG for 30 min. To stop the response, cells were washed with ice-cold PBS and the fluorescence intensity of 2-NBDG was measured on a Synergy HT microplate reader (BioTek Instruments, Winooski, VT, USA) at 485 nm excitation and 528 nm emission. Six replicate wells were established and each experiment was repeated three times.

HepG2 cells = test: MTT cytotoxicity assay on HepG2 cells; conditions: 24 h
Protocol: Before determining the insulin resistance of alaternin and emodin, the cytotoxicity of alaternin and emodin on HepG2 cells was first measured by the MTT assay. […] To investigate the ability of alaternin and emodin to increase glucose uptake, a 2-[N-(7-nitrobenz-2-oxa-1,3-diazol-4-yl) amino]-2-deoxy-D-glucose (2-NBDG) uptake assay was performed with insulin-resistant HepG2 cells.

[4] = molecular target: T1, PTP1B (human recombinant); test: Enzyme kinetic analysis of PTP1B inhibition (Dixon and Lineweaver-Burk plots); type: biochemical
Protocol: (§1) Since the Ki value represents the concentration needed to form an enzyme-inhibitor complex, this value plays an important role in the development of preventive and therapeutic agents.
(§2) In order to determine the inhibition mechanism, enzymatic inhibition at various concentrations of alaternin was evaluated by monitoring the effects of different concentrations of the substrates via Dixon plots (single reciprocal plot). Dixon plots of inhibition of PTP1B by alaternin were obtained in the presence of different concentrations of substrate: 1.0, 0.5, and 0.25 mM of pNPP. The test concentrations of alaternin in the PTP1B kinetic analysis were 0, 0.8, and 4.0 µM. Dixon plots of α-glucosidase inhibition by alaternin were performed in the presence of different concentrations of substrate: 2.5, 1.25, and 0.625 mM of pNPG. The test concentrations of alaternin used in the α-glucosidase kinetic analysis were 0.97, 1.95, and 3.90 µM. Both enzymatic procedures consisted of the same, aforementioned PTP1B and α-glucosidase assay methods. The inhibition constants (Ki) were determined by interpretation of the Dixon plots, where the value of the x-axis implies −Ki.

Yeast α-glucosidase [5] = test: Enzyme kinetic analysis of α-glucosidase inhibition (Dixon and Lineweaver-Burk plots); type: biochemical; conditions: for Inhibition type α-Glucosidase: Dixon plot and Lineweaver-Burk plot
Protocol: as §1, §2

PTP1B = tested on: PTP1B; set-up: method as in earlier work; conditions: cited from earlier work

Row | IC50 [1] | Molecule | PTP1B IC50 (Mean ± SEM) [1] | α-Glucosidase IC50 (Mean ± SEM) (Yeast α-glucosidase [2]) | other results
1 |  | COc1cc(C)cc2c1C(=O)c1c(O)cc(O)cc1C2=O [1-O-methylemodin] |  |  | α-glucosidase inhibitory activity (reported) (α-glucosidase): inactive
2 |  | COc1c(O)c(O)cc2c1C(=O)c1c(O)cc(C)cc1C2=O [2-Hydroxyemodin-1 methylether] | 5.22 ± 0.29 µg/mL | 5.65 ± 0.20 µg/mL | 
3 |  | COc1cccc2c1C(=O)c1c(O)cc(C)cc1C2=O [8-O-methyl chrysophanol] |  |  | α-glucosidase inhibitory activity (reported) (α-glucosidase): α-glucosidase inhibitors
4 | 82.3 µM | COc1c(O)cc2c(c1O)C(=O)c1c(cc(C)c(O)c1OC)C2=O [Aurantio-obtusin] |  | 41.20 ± 0.17 µg/mL | α-glucosidase inhibitory activity (reported) (α-glucosidase): inactive
5 |  | COc1cc2c(c(OC)c1OC)C(=O)c1c(cc(C)c(O[C@@H]3O[C@H](CO)[C@@H](O)[C@H](O)[C@H]3O)c1OC)C2=O [Chryso-obtusin-2-glucoside, chryso-obtusin-2-O-β-D-glucoside] | 39.34 ± 1.07 µg/mL | 178.85 ± 0.55 µg/mL | 
6 | 41.5 µM | COc1cc2c(c(OC)c1OC)C(=O)c1c(cc(C)c(O)c1OC)C2=O [Chryso-obtusin] |  | 36.01 ± 0.89 µg/mL | α-glucosidase inhibitory activity (reported) (α-glucosidase): α-glucosidase inhibitors
7 |  | Cc1cc(O[C@@H]2O[C@H](CO[C@@H]3O[C@H](CO)[C@@H](O)[C@H](O[C@@H]4O[C@H](CO[C@@H]5O[C@H](CO)[C@@H](O)[C@H](O)[C@H]5O)[C@@H](O)[C@H](O)[C@H]4O)[C@H]3O)[C@@H](O)[C@H](O)[C@H]2O)c2c(c1)C(=O)c1cccc(O)c1C2=O [Chrysophanol tetraglucoside] | 103.89 ± 1.22 µg/mL | 228.79 ± 0.91 µg/mL | 
8 |  | Cc1cc(O[C@@H]2O[C@H](CO[C@@H]3O[C@H](CO)[C@@H](O)[C@H](O[C@@H]4O[C@H](CO)[C@@H](O)[C@H](O)[C@H]4O)[C@H]3O)[C@@H](O)[C@H](O)[C@H]2O)c2c(c1)C(=O)c1cccc(O)c1C2=O [Chrysophanol triglucoside] | 80.17 ± 1.77 µg/mL | 197.06 ± 1.09 µg/mL | 
9 | 23 µM | Cc1cc(O)c2c(c1)C(=O)c1cccc(O)c1C2=O [Chrysophanol] |  | 46.81 ± 0.12 µg/mL | PTP1B inhibition (previous reports) (PTP1B): inhibited PTP1B
10 |  | COc1c(O[C@@H]2O[C@H](CO)[C@@H](O)[C@H](O)[C@H]2O)cc2c(c1O)C(=O)c1c(cc(C)c(O)c1OC)C2=O [Gluco-aurantio obtusin] | 31.30 ± 0.97 µg/mL | 142.19 ± 1.22 µg/mL | 
11 |  | COc1c(O[C@@H]2O[C@H](CO)[C@@H](O)[C@H](O)[C@H]2O)c(C)cc2c1C(=O)c1c(O)cccc1C2=O [Gluco-obtusifolin] | 53.35 ± 0.44 µg/mL | 23.77 ± 0.72 µg/mL | 
12 | 124 µM | COc1c(O)c(C)cc2c1C(=O)c1c(O)cccc1C2=O [Obtusifolin] |  | 142.12 ± 0.77 µg/mL | α-glucosidase inhibitory activity (reported) (α-glucosidase): inactive
13 |  | COc1cc2c(c(O)c1OC)C(=O)c1c(cc(C)c(O)c1OC)C2=O [Obtusin] | 6.44 ± 0.22 µg/mL | 20.92 ± 0.41 µg/mL | 
14 | 25.6 µM | COc1cc(O)c2c(c1)C(=O)c1cc(C)cc(O)c1C2=O [Physcion] |  | 2.38 ± 0.77 µg/mL | α-glucosidase inhibitory activity (reported) (α-glucosidase): α-glucosidase inhibitors; PTP1B inhibition (previous reports) (PTP1B): inhibited PTP1B
15 | 20 µM | COc1cc(O)cc2c1C(=O)c1c(O)cc(C)cc1C2=O [Questin] |  | 136.19 ± 0.01 µg/mL | 
16 |  | CN(C)C(=N)N=C(N)N [metformin, reference compound] |  |  | insulin-stimulated glucose uptake ([3]; metformin 10 μM, positive control): significantly increased
17 |  | Cassiaside | 48.55 ± 1.27 µg/mL | 129.23 ± 0.98 µg/mL | 
18 |  | Cassitoroside |  | 172.59 ± 0.74 µg/mL | 
19 |  | Toralactone gentiobioside | 81.15 ± 0.15 µg/mL | 37.60 ± 0.79 µg/mL | 

Row | Molecule | IC50 [1] | PTP1B IC50 (Mean ± SEM) [1] | α-Glucosidase IC50 (Mean ± SEM) (Yeast α-glucosidase [2]) | other results
20 | Cc1cc2c(c(O)c1O)C(=O)c1c(O)cc(O)cc1C2=O [Alaternin, 2-hydroxy emodin] | 4.26 µM |  | 0.99 ± 0.02 µg/mL | PTP1B inhibitory activity compared with emodin ([1]; fold higher than emodin): three-fold higher; insulin-stimulated uptake of 2-NBDG ([3]; 12.5, 25, and 50 μM alaternin): significantly enhanced; concentration without any cytotoxicity (HepG2 cells; HepG2 cells, MTT): up to 50 µM; Inhibition type PTP1B ([4]; Dixon plot and Lineweaver-Burk plot): Competitive; pKi ([4]; Dixon plot, pNPP 1.0, 0.5, 0.25 mM): 5.77; Inhibition type α-Glucosidase (Yeast α-glucosidase [5]): mixed type; Inhibition type α-Glucosidase (Yeast α-glucosidase [5]; listed as alaternin): Mixed; pKi (Yeast α-glucosidase [5]; Dixon plot, pNPG 2.5, 1.25, 0.625 mM): 6.18
21 | O=C1c2cccc(O)c2C(=O)c2c(O)cc(CO)cc21 [Aloe-emodin] | 207 µM |  | 1.40 ± 0.27 µg/mL | 
22 | Cc1cc(O)c2c(c1)C(=O)c1cc(O)cc(O)c1C2=O [Emodin, 1,6,8-trihydroxy 3-methyl anthraquinone] | 13 µM |  | 1.02 ± 0.01 µg/mL | insulin-stimulated uptake of 2-NBDG ([3]; 3.125, 6.25, and 12.5 μM emodin): significantly enhanced; concentration without any cytotoxicity (HepG2 cells; human): up to 12.5 µM; PTP1B inhibition (previous reports) (PTP1B): inhibited PTP1B
